In patent publication US7611863B2, “Selective staining of biomembranes using voltage-sensitive dyes” (Max-Planck-Gesellschaft zur Foerderung der Wissenschaften …, priority 2004, dated 2009):

Tests used:
[1] = Dye-lipid binding by fluorescence lipid titration; assay type: physicochemical; settings: for average binding constant K to lipid membrane: POPC vesicles, Tris-NaCl buffer pH 8.1, 25° C., dye 0.5 μM; for binding constant to lipid membranes: fluorescence lipid titration, Example 2
Protocol: Dye-lipid binding. The binding of the dyes to lipid membranes was determined by fluorescence lipid titration^21 with large unilamellar vesicles (LUVs) made of 1-palmitoyl-2-oleoyl-phosphatidylcholine (POPC). The purity of the lipids was checked by 2-dimensional TLC^22. The vesicles were made by extrusion^23 in Tris-NaCl buffer (20 mM Tris, 100 mM NaCl, pH 8.1), using an extrusion apparatus and polycarbonate filters with 100 nm pore size (both Avestin Europe, Mannheim, Germany). Vesicle size was determined by quasielastic light scattering using an argon ion laser (Spectra-Physics, Darmstadt, Germany), a photomultiplier (Brookhaven Instruments, Vienna, Austria) and a correlator (ALV-5000, Langen, Germany). The lipid concentration was determined by a chromogenic enzyme assay (Biomerieux, Marcy I'Etoile, France). The standard deviation of three concentration measurements for every vesicle preparation was always below 4%. Vesicles were stored under argon at 4° C. in 15 ml Falcon Centrifuge Tubes (BD Labware Europe, Le Pont de Claix, France) and used within three days.
To measure dye binding constants, we prepared 1 mM solutions of the dyes 1-3 by ultrasonication in Ethanol (1) or Tris-NaCl buffer (2,3). […] In the same buffer, suspensions of POPC vesicles with concentrations ranging from 100 nM to 10 mM were prepared by dilution of stock solutions. Dye and lipid were pre-thermostatted to 25° C. […] The fluorescence emission recorded at 600 nm with excitation at 488 nm was used for the evaluation of the partition coefficients.
Dye binding to lipid. When styryl hemicyanines bind to lipid bilayers, their quantum yield of fluorescence is enhanced. […] We take advantage of that effect to examine the binding of Di-4-ASPP phosphate and Di-4-ASPP alcohol to lipid membranes by fluorescence titration^21. For comparison Di-4-ASPBS was also included in the investigation.
Dispersions of large lipid vesicles (Ø≈100 nm) were made from palmitoyl-oleoyl-phosphatidylcholine (POPC) with lipid concentrations ranging over five orders of magnitude. […] The fluorescence intensity was enhanced with increasing concentration of lipid for all three dyes. The enhancement was shifted to higher lipid concentrations in the order Di-4-ASPP alcohol, Di-4-ASPBS and Di-4-ASPP phosphate.
Binding. The dyes Di-10-phosphato-ASPBS (Di-10P-ASPBS) and Di-12-phosphato-ASPBS (Di-12P-ASPBS) as well as the corresponding products after enzymatic hydrolysis Di-10-hydroxy-ASPBS (Di-10A-ASPBS) and Di-12-hydroxy-ASPBS (Di-12A-ASPBS) were synthesized by organic chemical methods. Their binding to lipid membranes was tested by fluorescence lipid titration (cf. page 15, section dye binding to lipid). The binding constants amounted to 27 M^−1 (Di-10P-ASPBS), 250,000 M^−1 (Di-10A-ASPBS), 2100 M^−1 (Di-12P-ASPBS) and 3,000,000 M^−1 (Di-12P-ASPBS) (FIGS. 14 and 15 (center and right hand side)). The difference in binding constants between dye alcohol and dye phosphates (or dye precursors) therefore amounted to a factor of 10,000 for the pair Di-10P-ASPBS/Di-10A-ASPBS and to a factor of 1000 for the pair Di-12P-ASPBS/Di-12A-ASPBS. The binding curve for the more lipophilic pair Di-12P-ASPBS/Di-12A-ASPBS is shifted to […] lipid concentrations.

[2] = tested on: Madine Darby Canine Kidney (MDCK) cells; assay: Enzyme induced staining of transiently transfected MDCK cells; assay type: cell-based
Protocol: FIG. 19. Genetically Targeted Staining of MDCK cells with Di-10P-ASPBS and Di-12P-ASPBS. (A) Cells were cotransfected with the membrane-bound phosphatase construct termed ArtPlasMA AP and H2B-GFP, a nucleus-localized transfection marker. Brightfield image and fluorescence images before (−1 sec) and after addition of 200 nM Di-10P-ASPBS. (B) Analogous to row A, but using 200 nM Di-12P-ASPBS. (C) Control experiment. Cells were transfected only with H2B-GFP and incubated with 200 nM Di-12P-ASPBS. Brightfield image and fluorescence images before (−1 sec) and after addition of dye (8 min). (D) Control experiment. Cells were cotransfected with the membrane-bound phosphatase construct termed ArtPlasMA AP and H2B-GFP and incubated with the dye Di-10A-ASPBS. Brightfield image and fluorescence image before (−1 sec) and after addition of dye (20 sec).
Two control experiments were performed: In the first control, cells were transfected only with the transfection marker H2B-GFP. […] In addition, no difference in staining intensity between transfected and untransfected cells can be discerned (FIG. 19C). In the second control experiment, cells were cotransfected with the phosphatase construct and the transfection marker.

[3] = upon transfer from water to lecithin membranes; cited from earlier work
[4] = tested on: HEK 293 cells expressing fusion protein of plasma membrane anchor and PLAP; assay: Staining of HEK 293 cells through overexpressed membrane-bound phosphatase; assay type: cell-based
Description: FIG. 13A to C: Staining of transfected HEK 293 cells with a voltage sensitive dye by activation of binding through an overexpressed, membrane-bound phosphatase. HEK 293 cells were cotransfected with a vector coding for GFP and a vector coding for a fusion protein of a plasma membrane anchor and phosphatase from the human placenta. A. fluorescence image showing the GFP fluoresence of a transfected cell (excitation filter 450/50 nm, emission filter 510 nm longpass; dichroic mirror: 505 nm). B. The voltage sensitive fluorescent dye Di-8-phosphato-ASPBS (cf. FIG. 11, bottom) was added to the incubation medium. […] C. […] The images shown are optimized for contrast and intensity.
(§1) FIG. 16. Genetically Targeted Staining of HEK293 cells with 1 mM Di-10P-ASPBS. A mixture of stable clones either expressing the membrane-bound phosphatase construct or cytosolic GFP were cultured on the same dish. (A) From left to right: (i) Brightfield image of cells. (ii) Fluorescence image of cells showing cells expressing cytosolic GFP (excitation filter 450/50 nm, emission filter 510 nm, dichroic mirror 505 nm). (iii) Cells expressing phosphatase as obtained by subtraction of GFP expressing cells from image i. (iv) Fluorescence image of cells with filters exc. 535/50 nm, em. 610/75 nm; dichroic mirror 535 nm. The image is normalized to the same level as in row B. (v) autoleveled image iv, showing fluorescence crosstalk of GFP. (B) Enzyme induced staining of cells as measured with filter set exc. 535/50 nm, em. 610/75 nm; dichroic mirror 535 nm. The membrane fluorescence increases over time. (C). Inverted and contrast-enhanced fluorescence images corresponding to row B. (D) Difference images. The image A/iv was subtracted from the images in row B. The resulting images were inverted and contrast was enhanced.
as §1, with “17.” for “16.”, “200 nM Di-12P-ASPBS.” for “1 mM Di-10P-ASPBS.”, “difference” for “and contrast-enhanced fluorescence images corresponding to row B. (D) Difference”, “enhanced. (D) Contrast enhanced images of row C.” for “enhanced.”
Enzyme induced staining. The dye precursors Di-10P-ASPBS and Di-12P-ASPBS were used to effect enzyme induced staining on cells. To test whether the staining is selective, a mixture of two cell populations was cultured in the same dish. One of these stably expressed the phosphatase construct, while the other was stably expressing GFP as a negative marker.

[5] = tested on: HEK 293 cells; assay: Staining of HEK 293 cells by activation of binding through soluble phosphatase; assay type: cell-based
Protocol: FIG. 12A to F: Staining of HEK 293 cells with a voltage sensitive dye by activation of binding through soluble phosphatase added to the incubation medium. HEK 293 cells (A, brightfield image) were incubated with the voltage sensitive fluorescent dye Di-8-phosphato-ASPBS (cf. FIG. 11, bottom) at a concentration of 19.6 μM. […] The images shown are optimized for contrast and intensity.

[6] = cells cotransfected with ArtPlasMA AP and H2B-GFP, 200 nM

For `CCCCN(CCCC)c1ccc(/C=C/c2cc[n+](CCCO)cc2)cc1.[Br-]` [Di-4-ASPP alcohol, 1-[γ-hydroxypropyl]-trans-4-[p-(di-n-butylamino)styryl]-pyridinium bromide], the “average binding constant K to lipid membrane” value [1] was 17920 ± 360 M⁻¹.
In the case of Di-10-hydroxy-ASPBS [Di-10A-ASPBS], the “binding constant to lipid membranes” value [1] is reported as 250,000 M^−1 and the “staining by product dye, transfected versus untransfected cells” value ([2]; cotransfected with phosphatase construct and H2B-GFP) is reported as “equally and unselectively stained”.
For `CCCCN(CCCC)c1ccc(C=Cc2cc[n+](CCCCS(=O)(=O)[O-])cc2)cc1` [Di-4-ASPBS, Di-4-ASP butylsulfonate, reference compound], the “increase in fluorescence quantum yield” value [3] is listed as 36 fold, the “average binding constant K to lipid membrane” value [1] is listed as 7500 ± 440 M⁻¹ and the “increment of the binding energy Δ(ΔG) relative to the alcohol” value ([1]; −RT ln(K/KA)) is listed as 0.526 kcal/mol.
In the case of Di-10-phosphato-ASPBS [Di-10P-ASPBS], the “binding constant to lipid membranes” value [1] is reported as 27 M⁻¹, the “difference in binding constants between dye alcohol and dye phosphate (precursor)” value ([1]; pair precursor/product dye) is reported as 10,000 factor and the “localization of staining at beginning of experiment” value [2, 6] is reported as “staining is localized to the transfected cells at the beginning of the experiment”. The “localization of staining over several minutes” value [2, 6] was “the produced dye diffuses to the surrounding, nontransfected cells” and the “enzyme induced membrane staining in mixed cell populations” value ([4]; phosphatase clones and GFP clones in same dish, 1 mM Di-10P-ASPBS, 200 nM Di-12P-ASPBS) was “allowed enzyme induced membrane staining”.
In the case of Di-8-phosphato-ASPBS, the “permeation of the cell plasma membrane” value ([5]; 19.6 μM, 30 minutes, cell interior stained only slightly) is reported as “permeates the cell plasma membrane very slowly”, the “membrane fluorescence before enzyme addition” value ([5]; 19.6 μM, after 30 minutes, no enzyme) is reported as “no membrane fluorescence could be detected” and the “membrane fluorescence after addition of soluble PLAP” value ([5]; PLAP 0.18 DEA Units/ml, 15 sec to 6 min) is reported as “membrane fluorescence was activated and increased over time”. For the same compound, the “membrane fluorescence directly after dye addition” value ([4]; transfected HEK 293 cell) was “no membrane fluorescence was visible”, the “membrane staining after 5 min of incubation” value ([4]; transfected HEK 293 cell) was “the membrane of the transfected cell was clearly stained” and the “membrane fluorescence of untransfected control cells” value ([4]; untransfected HEK 293 cells incubated with the dye) was “did not show any membrane fluorescence”.
